Measurements from ChEMBL document CHEMBL1201862, “PubChem BioAssay data set” (2004).
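Where inhibition never reached the appropriate level, the endpoint shown equals the highest concentration tested. Otherwise, values were interpolated linearly from a five-concentration, 48-hour dose response in 96-well plates. At the GI50, growth is halved.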 Active and inactive are the calls of the source. Cut-off read from the data, not from the text of the source: active = GI50 up to about 1.1 µM and inactive = higher.

Key:
Test in all cases: inhibition of tumour cell growth, NCI panel, 48 h
[1] = system: 786-0
[2] = system: A498
[3] = system: A549
[4] = system: ACHN
[5] = system: CAKI-1
[6] = system: CCRF-CEM
[7] = system: COLO 205
[8] = system: DLD-1
[9] = system: DMS-114
[10] = system: DMS-273
[11] = system: EKVX
[12] = system: HCC 2998
[13] = system: HCT-116
[14] = system: HCT-15
[15] = system: HL-60
[16] = system: HOP-62
[17] = system: HT-29
[18] = system: IGROV-1
[19] = system: K562
[20] = system: KM-20L2
[21] = system: KM12
[22] = system: LOX IMVI
[23] = system: LXFL 529
[24] = system: M14
[25] = system: M19-MEL
[26] = system: MOLT-4
[27] = system: Malme-3M
[28] = system: NCI-H23
[29] = system: NCI-H460
[30] = system: NCI-H522
[31] = system: OVCAR-3
[32] = system: OVCAR-4
[33] = system: OVCAR-5
[34] = system: OVCAR-8
[35] = system: RPMI-8226
[36] = system: RXF 631
[37] = system: SF-268
[38] = system: SF-295
[39] = system: SF-539
[40] = system: SK-MEL-28
[41] = system: SK-MEL-2
[42] = system: SK-MEL-5
[43] = system: SK-OV-3
[44] = system: SN12C
[45] = system: SNB-19
[46] = system: SNB-78
[47] = system: SW-620
[48] = system: TK-10
[49] = system: U-251
[50] = system: UACC-257
[51] = system: UACC-62
[52] = system: UO-31
[53] = system: XF498

Measured: GI50

O=C(O)COc1ccc(O)c2c1C(=O)CCCC2=O
inactive: [1] > 100 µM | [2] > 100 µM | [3] > 100 µM | [4] > 100 µM | [5] > 100 µM | [6] > 100 µM | [7] > 100 µM | [8] > 100 µM | [9] > 100 µM | [10] > 100 µM | [11] > 100 µM | [12] > 100 µM | [13] > 100 µM | [15] > 100 µM | [16] > 100 µM | [17] > 100 µM | [18] > 100 µM | [19] > 100 µM | [20] > 100 µM | [21] > 100 µM | [22] > 100 µM | [23] > 100 µM | [24] > 100 µM | [25] > 100 µM | [26] > 100 µM | [27] > 100 µM | [28] > 100 µM | [29] > 100 µM | [30] > 100 µM | [31] > 100 µM | [32] > 100 µM | [33] > 100 µM | [34] > 100 µM | [35] > 100 µM | [36] > 100 µM | [37] > 100 µM | [38] > 100 µM | [39] > 100 µM | [40] > 100 µM | [41] > 100 µM | [42] > 100 µM | [43] > 100 µM | [44] > 100 µM | [45] > 100 µM | [46] > 100 µM | [47] > 100 µM | [48] > 100 µM | [49] > 100 µM | [50] > 100 µM | [51] > 100 µM | [52] > 100 µM | [53] > 100 µM
> 100 µM: [14]
